Patent publication US9108993B2, “Pyrazole derivatives as sphingosine 1-phosphate (S1P) receptor modulators” (Allergan, Inc., priority 2013, dated 2015)

Target: T1, human S1P1 receptor (Homo sapiens, UniProt P21453)
T1 construct: expressed in transfected cells; membranes were used
Assay: GTP γ35S binding assay for S1P1 activity
Assay type: biochemical
Conditions: membranes of cells stably expressing the S1P1 receptor, agonist potency
Protocol: Compounds were synthesized and tested for S1P1 activity using the GTP γ^35S binding assay. These compounds may be assessed for their ability to activate or block activation of the human S1P1 receptor in cells stably expressing the S1P1 receptor.
GTP γ^355 binding was measured in the medium containing (mM) HEPES 25, pH 7.4, MgCl2 10, NaCl 100, dithiothreitol 0.5, digitonin 0.003%, 0.2 nM GTP γ^35 S, and 5 μg membrane protein in a volume of 150 μl. Test compounds were included in the concentration range from 0.08 to 5,000 nM unless indicated otherwise. Membranes were incubated with 100 μM 5′ adenylylimidodiphosphate for 30 min, and subsequently with 10 μM GDP for 10 min on ice. Drug solutions and membrane were mixed, and then reactions were initiated by adding GTP γ^35S and continued for 30 min at 25° C. Reaction mixtures were filtered over Whatman GF/B filters under vacuum, and washed three times with 3 mL of ice-cold buffer (HEPES 25, pH7.4, MgCl2 10 and NaCl 100). Filters were dried and mixed with scintillant, and counted for ^35S activity using a β-counter. Agonist-induced GTP γ^35S binding was obtained by subtracting that in the absence of agonist. Binding data were analyzed using a non-linear regression method. In case of antagonist assay, the reaction mixture contained 10 nM S1P in the presence of test antagonist at concentrations ranging from 0.08 to 5000 nM.

T1 sequence (P21453 whole entry): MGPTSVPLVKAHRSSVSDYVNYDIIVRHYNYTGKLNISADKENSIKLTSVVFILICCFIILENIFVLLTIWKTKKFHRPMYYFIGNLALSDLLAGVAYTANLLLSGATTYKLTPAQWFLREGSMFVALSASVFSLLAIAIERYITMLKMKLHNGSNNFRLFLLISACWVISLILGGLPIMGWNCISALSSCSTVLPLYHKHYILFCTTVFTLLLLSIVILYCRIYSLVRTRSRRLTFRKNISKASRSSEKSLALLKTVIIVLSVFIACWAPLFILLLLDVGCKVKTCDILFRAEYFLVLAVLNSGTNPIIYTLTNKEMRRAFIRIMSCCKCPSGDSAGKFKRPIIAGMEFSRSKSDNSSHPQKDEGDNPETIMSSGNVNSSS

- EC50: 262 nM
Structure (SMILES): Cc1nn(C(=O)CCc2ccc(CNCCC(=O)O)cc2)c2c1C1C(C2)C1(C)C (stereo not shown) [Compound 1, 3-({4-[3-oxo-3-(3,4,4-trimethyl-3b,4,4a,5-tetrahydro-1H-cyclopropa[3,4]cyclopenta[1,2-c]pyrazol-1-yl)propyl]benzyl}amino)propanoic acid]
